Measurements reported in patent US7335248B2, “Marine antifouling coating compositions” (Novus International, Inc., priority 2005, dated 2008).
“And” between values parts separate entries of the source, which are not always exact repeats. Identical values can stand only once. Like-named read-outs stand apart in the source and are kept apart here.

Columns and labels:
[1] = system: Oyster; conditions: 5%, 15 months, per panel side
From the text: (§1) HMTBA-Cu and HMTBA-Zn were supplied in powdered form by Novus International. […] The formulated paints were applied on PVC test panels (3 inch by 10 inch, ⅛ inch thickness), allowed to dry and shipped to a marine research center at Sacred Heart Marine Research Centre (SHMRC) in Tuticorin, India. The panels were mounted on frames on a floating platform in the open ocean and submerged totally under 3 ft of seawater for a period of 6 months, 9, or 12 months.
(§2) After the completion of the exposure period the panels were taken out of the seawater and transported to the shore laboratory in containers with seawater. The panels were evaluated by digital photography and physical examination of the coated surface. Barnacles were counted on the surface of the panels and along the edges. When there was substantial fouling on the surface, the area of the panel surface covered by barnacle fouling was estimated according to the methods described in ASTM D-3623. The panels were returned to the platform and again placed in total immersion. The panels were out of seawater during the examination for no more than 10 minutes.

[2] = system: barnacles; conditions: 5%, 15 months, per panel side
From the text: as §1, §2

[3] = system: Tube-worms; conditions: CuSP paint; 5%; 15 months; per panel side; nitrate trihydrate
From the text: as §1, §2

[4] = system: barnacle cyprids; assay: Barnacle cyprid settlement assay (method of Rittschof et al.), EC50 by probit analysis; assay type: in vivo, Balanus amphitrite amphitrite
Description: In this case, the defined effect is that the cyprids have not settled and have not attached to the Petri dish. Thus, in the attached data set, the “set” column indicates the total number of cyprid larvae that have settled and attached on the surface of the Petri dish and “non-set” indicates the total number of cyprids that remain swimming in the seawater and have not settled on the surface of the Petri dish.
Briefly, the barnacle adults are cultured in the laboratory and allowed to spawn naturally. The larvae are harvested and grown in artificial culture systems until they reach the cyprid stage at which time the larvae become competent to attach to surfaces. Once attached, the cyprids transform into a pinhead barnacle, thus becoming permanently attached to the surface. Rittschof D, Clare A S, Gerhart D J, Avelin Mary, Bonavetura J (1991) Barnacle in vitro assays for biologically active substances: toxicity and settlement assays using mass cultured Balanus amphitrite amphitrite Darwin. Biofouling (1992) 6:115-122.
(§3) Five replicates (e.g., a-e) for each concentration and the control were collected.

[5] = Solubility in seawater at the levels added in the cyprid assay; assay type: physicochemical; conditions: at the levels added (up to 0.1 mg/ml)
From the text: as §3

[6] = system: barnacles; assay: Nine month static immersion testing in the Indian Ocean; assay type: in vivo; conditions: 9-month static immersion
From the text: Table 5 summarizes the anti-fouling data from the nine-month immersion test, performed as described above for the six month tests.

[7] = system: barnacles; assay: Six month static immersion fouling test of painted PVC panels (open ocean, Tuticorin, India); assay type: in vivo; conditions: for Total barnacle Count / Mean ± SD (barnacle count): 6 months; for Total barnacle Count: both duplicate panels; for Mean ± SD (barnacle count): four panel surfaces
From the text: The reported data were extracted from the raw data as described below, and are shown as total barnacle counts for both duplicate panels of each test formulation. In Table 4, the mean and standard deviation of the data derived from the four panels' surfaces of the duplicate panels for each group. The barnacle counts along the edges were not considered in this evaluation because of the expected uneven coating and inherent tendency of barnacles to first attach to edges. In addition, coatings along the edges can be easily damaged or uneven. Thus, for evaluation purposes only the coated surfaces of the flat areas were considered for this evaluation.
Zinc Omadine was used as the positive control for this series of tests. It is important to note here that fouling is continuous throughout the year at the Tuticorin, India site and the degree of settlement is generally the same for the same coating system.

[8] = 1e-4 mg/ml, Total of five replicates
[9] = 0.001 mg/ml, Total of five replicates
[10] = 0.01 mg/ml, Total of five replicates
[11] = 0.1 mg/ml, Total of five replicates

O.O.O.O=[N+]([O-])[O-].O=[N+]([O-])[O-].[Cu+2] [Copper (II) Nitrate trihydrate, copper (II) nitrate trihydrate]
No. of Oyster ([1]; CuAB paint): 1
No. of Oyster ([1]; CuSP paint): 2
edge No of Barnacles ([2]; CuAB paint): 3
Maximum diameter in mm ([2]; CuAB paint, nitrate trihydrate): 10 mm and 11 mm and 9 mm
No. of barnacles on the coated surface ([2]; CuSP paint): 84
% of the surface with barnacles fouling ([2]; CuSP paint, nitrate trihydrate): 50% and 40% and 60%
Maximum diameter in mm ([2]; CuSP paint, nitrate trihydrate): 10 mm and 11 mm
No. of Tube-worms [3]: 2 and 1

CSCCC(O)C(=O)[O-].CSCCC(O)C(=O)[O-].[Zn+2] (stereo not shown) [HMTBA-Zn, zinc 2-hydroxy-4-methylthiobutanoate chelate]
% of set [4, 8]: 61%
Non set [4, 8]: 122
Set [4, 8]: 191
% of set ([4]; 1e-4 mg/ml, single replicate): 57% and 60% (2×) and 77% and 55%
Non set ([4]; 1e-4 mg/ml, single replicate): 28 and 21 and 12 and 25 and 36
Set ([4]; 1e-4 mg/ml, single replicate): 37 and 31 and 41 and 38 and 44
% of set [4, 9]: 58%
Non set [4, 9]: 135
Set [4, 9]: 187
% of set ([4]; 0.001 mg/ml, single replicate): 62% and 78% and 69% and 41% and 42%
Non set ([4]; 0.001 mg/ml, single replicate): 30 and 14 and 16 and 38 and 37
Set ([4]; 0.001 mg/ml, single replicate): 49 (2×) and 36 and 26 and 27
appearance and swimming behavior of cyprids ([4]; 0.01 mg/ml and higher (so in the source)): no adverse effects
% of set [4, 10]: 32%
Non set [4, 10]: 207
Set [4, 10]: 99
% of set ([4]; 0.01 mg/ml, single replicate): 30% and 26% and 40% and 32% and 35%
Non set ([4]; 0.01 mg/ml, single replicate): 49 and 54 and 44 and 34 and 26
Set ([4]; 0.01 mg/ml, single replicate): 21 and 19 and 29 and 16 and 14
toxic effects on the cyprids ([4]; 0.1 mg per ml): death of all cyprids
% of set [4, 11]: 0%
Non set [4, 11]: 346
Set [4, 11]: 0
% of set ([4]; 0.1 mg/ml, single replicate): 0%
Non set ([4]; 0.1 mg/ml, single replicate): 92 and 69 and 63 and 58 and 64
Set ([4]; 0.1 mg/ml, single replicate): 0
EC50 ([4]; barnacle cyprids not settled/attached to Petri dish, probit analysis): 5.7 µg/mL
inhibition of barnacle cyprid settlement ([4]; in vivo): biologically active as inhibitors of barnacle cyprid settlement
SLOPE ([4]; probit analysis, barnacle settlement): 1.564
NO. RESPONDING ([4]; probit data as input, DOSE .00001): 97
solubility in seawater [5]: soluble in seawater at the levels added
LS MEAN BARNACLES ([6]; CUSP PAINT): 3
LS MEAN BARNACLES ([6]; MFAB PAINT): 1.5
Total barnacle Count ([7]; CUAB coating, 1% (w/w)): 123
Mean ± SD (barnacle count) ([7]; CUAB coating, 1% (w/w)): 30.8 ± 11.6
Total barnacle Count ([7]; CUAB coating, 3% (w/w)): 52
Mean ± SD (barnacle count) ([7]; CUAB coating, 3% (w/w)): 13.0 ± 10.7
Total barnacle Count ([7]; CUAB coating, 5% (w/w)): 1
Mean ± SD (barnacle count) ([7]; CUAB coating, 5% (w/w)): 0.3 ± 0.4
Total barnacle Count ([7]; CUAB coating, 10% (w/w)): 101
Mean ± SD (barnacle count) ([7]; CUAB coating, 10% (w/w)): 25.3 ± 2.9
Total barnacle Count ([7]; CUSP coating, 1% (w/w)): 1
Mean ± SD (barnacle count) ([7]; CUSP coating, 1% (w/w)): 0.3 ± 0.4
Total barnacle Count ([7]; CUSP coating, 3% (w/w)): 0
Mean ± SD (barnacle count) ([7]; CUSP coating, 3% (w/w)): 0
Total barnacle Count ([7]; CUSP coating, 5% (w/w)): 0
Mean ± SD (barnacle count) ([7]; CUSP coating, 5% (w/w)): 0
Total barnacle Count ([7]; CUSP coating, 10% (w/w)): 2
Mean ± SD (barnacle count) ([7]; CUSP coating, 10% (w/w)): 0.5 ± 0.9
Total barnacle Count ([7]; MFAB coating, 1% (w/w)): 0
Mean ± SD (barnacle count) ([7]; MFAB coating, 1% (w/w)): 0
Total barnacle Count ([7]; MFAB coating, 3% (w/w)): 3
Mean ± SD (barnacle count) ([7]; MFAB coating, 3% (w/w)): 0.8 ± 1.3
Total barnacle Count ([7]; MFAB coating, 5% (w/w)): 1
Mean ± SD (barnacle count) ([7]; MFAB coating, 5% (w/w)): 0.3 ± 0.4
Total barnacle Count ([7]; MFAB coating, 10% (w/w)): 7
Mean ± SD (barnacle count) ([7]; MFAB coating, 10% (w/w)): 1.8 ± 1.3
comparative performance ([7]; copper ablative coatings, 5%, six months): outperformed
efficacy / barnacle settlement ([7]; copper self-polishing and metal-free ablative coatings, six months of exposure): significant efficacy
